Data as given in patent US20260098030A1, “NEGATIVE ALLOSTERIC MODULATORS OF METABOTROPIC GLUTAMATE RECEPTOR 2” (Vanderbilt University, priority 2022, published 2026).

molecular target: T1, rat mGlu2 (Rattus norvegicus, UniProt P31421); assay: mGlu GIRK cell-based thallium flux assay, rat mGlu2; details: HEK-293 cells co-expressing rat mGlu2 and GIRK, EC80 glutamate
T1 construct: expressed in transfected cells; host or cells: HEK-293 cells stably co-expressing GIRK channels
Description: Human embryonic kidney (HEK-293) cell lines stably co-expressing human or rat mGlu2 and G protein-coupled inwardly rectifying potassium (GIRK) channels, or human mGlu3 and GIRK, were used for in vitro evaluation of compound activity in thallium flux assay using a fluorescent thallium indicator dye.
The day before the assay, GIRK cells co-expressing human mGlu3, human or rat mGlu2, as described above, were plated in black-walled, clear-bottomed, amine-coated 384-well plates at a density of 15,000 cells/20 μL/well in the assay medium (glutamine-depleted basal DMEM supplemented with 10% dialyzed FBS, 20 mM HEPES, 1 mM sodium pyruvate). Cells were incubated at 37° C. in the presence of 5% CO2. The next day, assay buffer (Hanks balanced salt solution, 20 mM HEPES, 4.16 mM sodium bicarbonate, pH 7.2) was prepared to dilute compounds and Thallos AM fluorescent dye solution. The 2× Thallos dye solution (final concentration 0.34 μM to the cells) was prepared by mixing the dye stock (2.97 mM in DMSO) to 1:1 with 10% pluronic acid before adding to the assay buffer. Cells were washed with assay buffer using a microplate washer to remove the medium, resulting in 20 μL of buffer remaining in each well. Immediately, 20 μL of 2× Thallos dye solution was added to cells, and incubated for one hour at 25° C. During the cell dye loading incubation period, a 10-point concentration serial dilution of compound was created from a 10 mM DMSO compound stock by performing a 1:3 serial dilution in DMSO using the Bravo liquid handler. The 2× compound plate was generated by transferring 0.24 μL of the diluted compound in each well to a daughter plate using an Echo acoustic liquid handler. This is further diluted in 40 μL assay buffer, resulting in a range from 30 μM to 1.5 nM final concentration in the assay. The agonist plate (5×) was prepared to include EC80 glutamate concentration (a concentration to elicit 80% of a maximally effective glutamate concentration) in thallium buffer (125 mM […], 1 mM magnesium sulfate, 1.8 mM calcium sulfate, 5 mM glucose, 10 mM HEPES, pH 7.2, 12.5 mM thallium sulfate).
After dye-loading, cell plates were washed with assay buffer to remove excess extracellular dye using a microplate washer, resulting in 20 μL of buffer remaining in each well. After a ten-minute equilibration period, cell, compound and agonist plates were loaded into a Hamamatsu μCell kinetic imaging plate reader equipped with liquid handler to monitor fluorescence changes at 480 nm excitation and 540 nm emission settings. Briefly, after collection of baseline fluorescence, 20 μL of compound was added and incubated for two minutes and twenty seconds. This is immediately followed by adding 10 μL of glutamate-thallium buffer to the wells containing compound. The fluorescent signal was monitored an additional 2.5 minutes after the glutamate addition. Multiple reference wells containing no compound received either no glutamate (for a baseline reference), EC80 glutamate, or ECmax glutamate (for normalization to maximum response). Fluorescence was measured throughout the experiment at a frequency of 1 measurement per every 2 seconds before the glutamate addition and a frequency of 1 measurement per every 1 second after the glutamate addition. Each compound concentration series occurred one time in each plate, and replicates from two or three plates were used in each experimental run. Thallium solutions were handled and disposed of according to guidelines from the Vanderbilt University Chemical Safety department.
Data were normalized using a static ratio function (F/F0) by dividing every fluorescent measurement by the initial fluorescent value for the corresponding well. The increase in signal resulting from the glutamate/thallium addition of the second add was measured by determining the slope from 3 seconds to 13 seconds after the addition. […]

T1 sequence (P31421 19-872): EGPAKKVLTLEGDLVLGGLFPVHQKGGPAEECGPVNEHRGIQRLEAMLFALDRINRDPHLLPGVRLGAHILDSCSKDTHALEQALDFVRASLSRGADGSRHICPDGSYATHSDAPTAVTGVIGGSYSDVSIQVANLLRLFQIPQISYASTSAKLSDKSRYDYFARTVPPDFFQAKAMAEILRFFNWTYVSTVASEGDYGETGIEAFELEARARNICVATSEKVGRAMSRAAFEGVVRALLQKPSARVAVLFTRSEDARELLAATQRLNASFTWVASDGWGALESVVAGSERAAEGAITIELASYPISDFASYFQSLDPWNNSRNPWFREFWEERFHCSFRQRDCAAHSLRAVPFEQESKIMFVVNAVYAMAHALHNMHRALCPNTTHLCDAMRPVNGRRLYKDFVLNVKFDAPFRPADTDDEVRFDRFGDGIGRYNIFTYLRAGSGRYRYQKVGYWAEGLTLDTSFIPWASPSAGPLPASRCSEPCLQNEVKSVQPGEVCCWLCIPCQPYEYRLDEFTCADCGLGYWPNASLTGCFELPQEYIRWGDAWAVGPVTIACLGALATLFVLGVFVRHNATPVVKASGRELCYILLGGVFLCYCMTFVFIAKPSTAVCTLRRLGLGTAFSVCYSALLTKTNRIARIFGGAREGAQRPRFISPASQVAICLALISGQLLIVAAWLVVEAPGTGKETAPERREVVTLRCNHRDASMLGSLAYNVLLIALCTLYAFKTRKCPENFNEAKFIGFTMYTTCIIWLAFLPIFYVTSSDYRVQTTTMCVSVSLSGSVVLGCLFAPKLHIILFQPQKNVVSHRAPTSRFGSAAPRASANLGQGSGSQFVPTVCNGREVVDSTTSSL

| Compound | IC50 [µM] |
| --- | --- |
| Cc1nc2cc(-c3cc4c(cc3-c3ccc(F)cc3)C(=O)NC4)ccc2[nH]1 [Compound 10, 6-(4-fluorophenyl)-5-(2-methyl-1H-benzo[d]imidazol-5-yl)isoindolin-1-one] | > 10 |
| O=C1NCc2cc(-c3ccc4ncsc4c3)c(-c3ccc(F)cc3)cc21 [Compound 11, 5-(benzo[d]thiazol-6-yl)-6-(4-fluorophenyl)isoindolin-1-one] | > 10 |
| Cn1cc2cc(-c3cc4c(cc3-c3ccc(F)cc3)C(=O)NC4)cnc2n1 [Compound 16, 6-(4-fluorophenyl)-5-(2-methyl-2H-pyrazolo[3,4-b]pyridin-5-yl)isoindolin-1-one] | > 10 |
| O=C1NCc2cc(-c3ccc(C4CC4)nc3)c(-c3ccc(F)cc3)cc21 [Compound 26, 5-(6-cyclopropylpyridin-3-yl)-6-(4-fluorophenyl)isoindolin-1-one] | > 10 |
| O=C1NCc2cc(-c3ccc(C(F)(F)F)nc3)c(-c3ccc(F)cc3)cc21 [Compound 27, 6-(4-fluorophenyl)-5-(6-(trifluoromethyl)pyridin-3-yl)isoindolin-1-one] | > 10 |
| Cc1nc(F)ccc1-c1cc2c(cc1-c1ccc(F)cc1)C(=O)NC2 [Compound 30, 5-(6-fluoro-2-methylpyridin-3-yl)-6-(4-fluorophenyl)isoindolin-1-one] | > 10 |
| O=C1NCc2cc(-c3ccc(F)nc3F)c(-c3ccc(F)cc3)cc21 [Compound 32, 5-(2,6-difluoropyridin-3-yl)-6-(4-fluorophenyl)isoindolin-1-one] | > 10 |
| N#Cc1ccc(-c2cc3c(cc2-c2ccc(F)cc2)C(=O)NC3)cn1 [Compound 33, 5-(6-(4-fluorophenyl)-1-oxoisoindolin-5-yl)picolinonitrile] | > 10 |
| CN(C)c1ccc(-c2cc3c(cc2-c2ccc(F)cc2)C(=O)NC3)cn1 [Compound 34, 5-(6-(dimethylamino)pyridin-3-yl)-6-(4-fluorophenyl)isoindolin-1-one] | > 10 |
| CC(=O)Nc1ccc(-c2cc3c(cc2-c2ccc(F)cc2)C(=O)NC3)cn1 [Compound 36, N-(5-(6-(4-fluorophenyl)-1-oxoisoindolin-5-yl)pyridin-2-yl)acetamide] | > 10 |
| Cc1cc(F)ncc1-c1cc2c(cc1-c1ccc(F)cc1)C(=O)NC2 [Compound 37, 5-(6-fluoro-4-methylpyridin-3-yl)-6-(4-fluorophenyl)isoindolin-1-one] | > 10 |
| CN(C)c1ncccc1-c1cc2c(cc1-c1ccc(F)cc1)C(=O)NC2 [Compound 39, 5-(2-(dimethylamino)pyridin-3-yl)-6-(4-fluorophenyl)isoindolin-1-one] | > 10 |
| O=C1NCc2cc(-c3cccnc3F)c(-c3ccc(F)cc3)cc21 [Compound 40, 6-(4-fluorophenyl)-5-(2-fluoropyridin-3-yl)isoindolin-1-one] | > 10 |
| Cc1ncccc1-c1cc2c(cc1-c1ccc(F)cc1)C(=O)NC2 [Compound 41, 6-(4-fluorophenyl)-5-(2-methylpyridin-3-yl)isoindolin-1-one] | > 10 |
| O=C1NCc2cc(-c3cccnc3C3CC3)c(-c3ccc(F)cc3)cc21 [Compound 43, 5-(2-cyclopropylpyridin-3-yl)-6-(4-fluorophenyl)isoindolin-1-one] | > 10 |
| O=C1NCc2cc(-c3cccnc3)c(-c3ccc(F)cc3)cc21 [Compound 44, 6-(4-fluorophenyl)-5-(pyridin-3-yl)isoindolin-1-one] | > 10 |
| O=C1NCc2cc(-c3ccccn3)c(-c3ccc(F)cc3)cc21 [Compound 45, 6-(4-fluorophenyl)-5-(pyridin-2-yl)isoindolin-1-one] | > 10 |
| Cc1n[nH]c2ccc(-c3cc4c(cc3-c3ccc(F)cc3)C(=O)NC4)cc12 [Compound 47, 6-(4-fluorophenyl)-5-(3-methyl-1H-indazol-5-yl)isoindolin-1-one] | > 10 |
| Cc1ccncc1-c1cc2c(cc1-c1ccc(F)cc1)C(=O)NC2 [Compound 48, 6-(4-fluorophenyl)-5-(4-methylpyridin-3-yl)isoindolin-1-one] | > 10 |
| O=C1NCc2cc(-c3ccc4[nH]ccc4c3)c(-c3ccc(F)cc3)cc21 [Compound 49, 6-(4-fluorophenyl)-5-(1H-indol-5-yl)isoindolin-1-one] | > 10 |

Compounds with a lower IC50, results first:

| IC50 [µM] | Compound |
| --- | --- |
| 8.31 | O=C1NCc2cc(-c3ccc4nccn4c3)c(-c3ccc(F)cc3)cc21 [Compound 20, 6-(4-fluorophenyl)-5-(imidazo[1,2-a]pyridin-6-yl)isoindolin-1-one] |
| 7.55 | CC(C)c1ncccc1-c1cc2c(cc1-c1ccc(F)cc1)C(=O)NC2 [Compound 42, 6-(4-fluorophenyl)-5-(2-isopropylpyridin-3-yl)isoindolin-1-one] |
| 4.33 | O=C1NCc2cc(-c3ccc4cccnc4c3)c(-c3ccc(F)cc3)cc21 [Compound 18, 6-(4-fluorophenyl)-5-(quinolin-7-yl)isoindolin-1-one] |
| 4.31 | O=C1NCc2cc(-c3ccc4ncccc4c3)c(-c3ccc(F)cc3)cc21 [Compound 19, 6-(4-fluorophenyl)-5-(quinolin-6-yl)isoindolin-1-one] |
| 4.06 | O=C1NCc2cc(-c3ccc4ccncc4c3)c(-c3ccc(F)cc3)cc21 [Compound 15, 6-(4-fluorophenyl)-5-(isoquinolin-7-yl)isoindolin-1-one] |
| 3.81 | O=C1NCc2cc(-c3cc(F)c4ncccc4c3F)c(-c3ccc(F)cc3)cc21 [Compound 21, 5-(5,8-difluoroquinolin-6-yl)-6-(4-fluorophenyl)isoindolin-1-one] |
| 3.6 | Cc1ccc(-c2cc3c(cc2-c2ccc(F)cc2)C(=O)NC3)c(C)n1 [Compound 29, 5-(2,6-dimethylpyridin-3-yl)-6-(4-fluorophenyl)isoindolin-1-one] |
| 2.46 | Cc1ccc(-c2cc3c(cc2-c2ccc(F)cc2)C(=O)NC3)cn1 [Compound 6, 6-(4-fluorophenyl)-5-(6-methylpyridin-3-yl)isoindolin-1-one] |
| 2.35 | Cn1cc2ccc(-c3cc4c(cc3-c3ccc(F)cc3F)C(=O)NC4)cc2n1 [Compound 25, 6-(2,4-difluorophenyl)-5-(2-methyl-2H-indazol-6-yl)isoindolin-1-one] |
| 2.25 | O=C1NCc2cc(-c3ccc4cnccc4c3)c(-c3ccc(F)cc3)cc21 [Compound 14, 6-(4-fluorophenyl)-5-(isoquinolin-6-yl)isoindolin-1-one] |
| 2.15 | O=C1NCc2cc(-c3ccc4scnc4c3)c(-c3ccc(F)cc3F)cc21 [Compound 23, 5-(benzo[d]thiazol-5-yl)-6-(2,4-difluorophenyl)isoindolin-1-one] |
| 1.96 | O=C1NCc2cc(-c3cnc4[nH]ccc4c3)c(-c3ccc(F)cc3)cc21 [Compound 38, 6-(4-fluorophenyl)-5-(1H-pyrrolo[2,3-b]pyridin-5-yl)isoindolin-1-one] |
| 1.93 | Cn1cc2c(-c3cc4c(cc3-c3ccc(F)cc3)C(=O)NC4)cccc2n1 [Compound 28, 6-(4-fluorophenyl)-5-(2-methyl-2H-indazol-4-yl)isoindolin-1-one] |
| 1.24 | Cn1cc2cccc(-c3cc4c(cc3-c3ccc(F)cc3)C(=O)NC4)c2n1 [Compound 17, 6-(4-fluorophenyl)-5-(2-methyl-2H-indazol-7-yl)isoindolin-1-one] |
| 1.03 | Cn1ccc(-c2cc3c(cc2-c2ccc(F)cc2)C(=O)NC3)n1 [Compound 35, 6-(4-fluorophenyl)-5-(1-methyl-1H-pyrazol-3-yl)isoindolin-1-one] |
| 0.161 | O=C1NCc2cc(-c3ccc4scnc4c3)c(-c3ccc(F)cc3)cc21 [Compound 13, 5-(benzo[d]thiazol-5-yl)-6-(4-fluorophenyl)isoindolin-1-one] |
| 0.094 | O=C1NCc2cc(-c3ccc4ocnc4c3)c(-c3ccc(F)cc3)cc21 [Compound 12, 5-(benzo[d]oxazol-5-yl)-6-(4-fluorophenyl)isoindolin-1-one] |
